Values quoted from earlier work, collected in patent publication US8012958B2, “Methods for treating anxiety related disorders” (Hythlam, Inc., priority 2005, dated 2011).
Read-outs that look alike come from different tables or passages of the source.

Tests used:
[1] = not given; remark: listed apart in the source
[2] = overdose
[3] = IM 2 to 3 mg (0.02 to 0.05 mg/kg); patients 60 years or older without concomitant narcotics
[4] = molecular target: T1, monoamine oxidase B (MAO-B) (Homo sapiens, UniProt P27338); details: single 300 mg dose
T1 sequence (P27338 1-520): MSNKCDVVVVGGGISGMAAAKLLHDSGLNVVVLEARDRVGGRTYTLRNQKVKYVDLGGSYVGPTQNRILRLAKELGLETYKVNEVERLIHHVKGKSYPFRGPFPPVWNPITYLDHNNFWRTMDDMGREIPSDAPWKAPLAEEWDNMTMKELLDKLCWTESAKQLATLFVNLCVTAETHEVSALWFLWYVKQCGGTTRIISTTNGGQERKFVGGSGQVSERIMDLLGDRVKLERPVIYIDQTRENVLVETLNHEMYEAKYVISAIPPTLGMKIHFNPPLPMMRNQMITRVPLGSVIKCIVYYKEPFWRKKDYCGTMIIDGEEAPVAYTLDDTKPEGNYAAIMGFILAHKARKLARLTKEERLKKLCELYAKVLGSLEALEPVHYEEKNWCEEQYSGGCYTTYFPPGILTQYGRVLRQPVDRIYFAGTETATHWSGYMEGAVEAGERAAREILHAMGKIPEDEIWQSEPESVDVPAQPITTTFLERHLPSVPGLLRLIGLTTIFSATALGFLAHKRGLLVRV

[5] = molecular target: T2, monoamine oxidase A (MAO-A) (Homo sapiens, UniProt P21397); details: single 300 mg dose
T2 sequence (P21397 1-527): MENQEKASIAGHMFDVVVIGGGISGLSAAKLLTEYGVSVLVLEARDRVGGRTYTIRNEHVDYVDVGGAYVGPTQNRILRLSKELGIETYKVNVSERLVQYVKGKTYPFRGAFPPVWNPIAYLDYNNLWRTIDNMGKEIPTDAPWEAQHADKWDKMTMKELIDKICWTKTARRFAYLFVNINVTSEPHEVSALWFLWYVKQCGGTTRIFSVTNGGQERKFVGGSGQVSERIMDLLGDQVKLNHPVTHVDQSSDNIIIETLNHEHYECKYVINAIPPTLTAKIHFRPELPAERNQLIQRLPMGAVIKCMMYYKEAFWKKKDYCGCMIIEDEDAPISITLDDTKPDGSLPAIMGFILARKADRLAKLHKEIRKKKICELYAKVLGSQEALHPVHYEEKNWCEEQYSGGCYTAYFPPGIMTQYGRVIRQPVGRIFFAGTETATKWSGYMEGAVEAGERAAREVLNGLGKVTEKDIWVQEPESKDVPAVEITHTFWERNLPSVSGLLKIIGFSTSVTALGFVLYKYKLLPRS

[6] = system: GABAA receptor α4 subunit mRNA; details: for amount of α4 subunit mRNA after withdrawal of the drug: withdrawal after long-term exposure
[7] = system: GABAA receptors that contain α4 or α6 subunits
[8] = system: GABAA receptors; details: 3 μM flumazenil; ethanol withdrawn cells

CCC1(c2ccccc2)C(=O)NC(=O)NC1=O.CNC(C)CC1CCCCC1 [BARBEXACLONE]
dose equivalent to 60 mg of phenobarbital (in vivo): 100 mg of barbexaclone is equivalent to 60 mg of phenobarbital.

CCCCC1(CC)C(=O)NC(=O)NC1=O [BUTOBARBITAL]
dose equivalent to 10 mg of Diazepam (butobarbital): 50 mg of Butobarbital is equivalent to 10 mg of Diazepam; Acc. to

COc1ccc2c3c1O[C@H]1[C@@H](O)C=C[C@H]4[C@@H](C2)N(C)CC[C@@]341 [CODEINE]
dose about equal to 30 mg (oral) of morphine (oral): 200 mg (oral) of codeine is about equal to 30 mg (oral) of morphine.

C[C@]12C=CC(=O)N[C@@H]1CC[C@@H]1[C@@H]2CC[C@]2(C)[C@@H](C(=O)Nc3cc(C(F)(F)F)ccc3C(F)(F)F)CC[C@@H]12 [DUTASTERIDE, (5α,17β)-N-{2,5 bis(trifluoromethyl)phenyl}-3-oxo-4-azaandrost-1-ene-17-carboxamide]
adverse effects compared with therapeutic dose of 0.5 mg ([1]; clinical study, 5 mg daily for 6 months): subjects for 6 months with no additional adverse effects to those

CCCC(C)(COC(N)=O)COC(N)=O [MEPROBROMATE]
ingested amount with which survival has been reported (as much as) [2]: much as 40 g.

Cc1ncc2n1-c1ccc(Cl)cc1C(c1ccccc1F)=NC2 [MIDAZOLAM]
sedation during the preoperative period [3]: (0.02 to 0.05 mg/kg) of VERSED produced adequate sedation

O=C(NCCN1CCOCC1)c1ccc(Cl)cc1 [Moclobemide]
inhibition of monoamine oxidase B (MAO-B) [4]: oxidase A (MAO-A) and 30% of monoamine oxidase B (MAO-B), | inhibition of monoamine oxidase A (MAO-A) [5]: A single 300 mg dose of moclobemide inhibits 80% of monoamine

CC1CN2CC(=O)Nc3ccc(Cl)cc3C2(c2ccccc2)O1 (stereo not shown) [OXAZOLAM]
dose equivalent to 10 mg of Diazepam (oxazolam): 20 mg is equivalent to 10 mg of Diazepam.

CCN(C(C)=O)c1cccc(-c2ccnc3c(C#N)cnn23)c1 [ZALPELON]
amount of α4 subunit mRNA after withdrawal of the drug [6]: marked increase

CN1C(=O)CN=C(c2ccccc2)c2cc(Cl)ccc21 [diazepam]
affinity for or efficacy at GABAA receptors that contain α4 or α6 subunits [7]: no affinity for or efficacy | effect on the ethanol withdrawal-induced increase in abundance of α4 subunit mRNA ([6]; exposure at the time of ethanol withdrawal): antagonizes the withdrawal-induced increase | amount of α4 subunit mRNA after withdrawal of the drug [6]: marked increase

CCOC(=O)c1ncn2c1CN(C)C(=O)c1cc(F)ccc1-2 [flumazenil, ethyl 8-fluoro-5,6-dihydro-5-methyl-6-oxo-4H-imidazo-[1,5-a][1,4]benzodiazepine-3-carboxylate]
adverse effect on the nervous system ([1]; human, in vivo): causing increased agitation and anxiety | modulation of the GABA evoked Cl- current [8]: potentiates the GABA evoked Cl— current

Cc1ccc(-c2nc3ccc(C)cn3c2CC(=O)N(C)C)cc1 [zolpidem]
amount of α4 subunit mRNA after withdrawal of the drug [6]: marked increase
